Assay results: US12186283B2, “Bismuth-thiol compositions and methods of use” (Microbion Corporation, priority 2018, dated 2025)
In brackets after ≈: the same amount, converted by molar mass.

How the values were obtained:
Candida spp. [1] = assay: Broth microdilution MIC, yeast (Example 13), group statement and QC; type: cell-based; conditions: C. parapsilosis ATCC 22019, comparators, single value
Candida krusei [2] = assay: Broth microdilution MIC, yeast (Example 13); type: cell-based; conditions: C. krusei ATCC 6258 (QC, Table 110), comparators, single value
Aspergillus spp. = assay: Broth microdilution MIC/MEC, mold (Example 13); type: cell-based; conditions: A. flavus ATCC 204304 (QC, Table 110); 24 hr; MEC
E. coli ATCC 25922 = assay: Broth microdilution MIC, QC organism (Example 13, Table 110); type: cell-based, Escherichia coli
Description: (§1) MECs were only reported where observed.

S. aureus ATCC 29213 = assay: as above; type: cell-based, Staphylococcus aureus
Description: as §1

Candida spp. [3] = conditions: C. parapsilosis ATCC 22019, CLSI established QC range, cited from earlier work
Candida krusei [4] = conditions: C. krusei ATCC 6258, CLSI established QC range, cited from earlier work

Compound: CC[C@H](C)C[C@H](C)CCCCCCCCC(=O)N[C@H]1C[C@@H](O)[C@@H](NCCN)NC(=O)[C@@H]2[C@@H](O)CCN2C(=O)[C@H]([C@H](O)CCN)NC(=O)[C@H]([C@H](O)[C@@H](O)c2ccc(O)cc2)NC(=O)[C@@H]2C[C@@H](O)CN2C(=O)[C@H]([C@@H](C)O)NC1=O [Caspofungin]
- MIC 24 hr (Candida spp. [1]; 24 hr): 0.25 µg/mL (≈ 0.229 µM)
- MIC 48 hr (Candida spp. [1]; 48 hr): 0.5 µg/mL (≈ 0.457 µM)
- MIC 24 hr (Candida krusei [2]; 24 hr): 0.25 µg/mL (≈ 0.229 µM)
- MIC 48 hr (Candida krusei [2]; 48 hr): 0.25 µg/mL (≈ 0.229 µM)
- MIC 24 hr (MEC) (Aspergillus spp.): 0.12
- MIC 24 hr (E. coli ATCC 25922): > 64 µg/mL
- MIC 24 hr (S. aureus ATCC 29213): > 64 µg/mL
- QC Range 24 hr (Candida spp. [3]; 24 hr): 0.25-1
- QC Range 48 hr (Candida spp. [3]; 48 hr): 0.5-4
- QC Range 24 hr (Candida krusei [4]; 24 hr): 0.12-1
- QC Range 48 hr (Candida krusei [4]; 48 hr): 0.25-2
